The test system of data set [1] is HSF1. Nature of the data set: HSF1 steady-state level and trimerization (Western blot, EGS cross-linking) in HepG2 cells. The class given is cell-based, human. The procedure:
HepG2 cells were treated with serum-free MEM containing 1.5% BSA for 2 hours at 37° C. without any additions (lane 1), at 37° C. but containing 40 μg/ml of ALLN in the medium (lane 2), at 37° C. in a medium containing both ALLN and 50 μg/ml of cycloheximide (lane 3), at 42° C. alone (lane 4), or at 42° C. plus cycloheximide in the medium (lane 5). Cell lysates were prepared as described under Experimental Details. The lysates were either directly run on the SDS-PAGE (A) to show the steady-state protein levels of HSF1 or subjected to cross-linking with ethylene glycol bis sucrinimidylsuccinate (EGS) before running the gel (B) to show the oligomeric forms of HSF1. The proteins were then transfered to a nitrocellulose membrane and immunoblotted with anti-human HSF1 antibody. Arrows on the right side indicates the monomeric, dimeric or trimeric forms of HSF1, respectively. This experiment was repeated three times with identical results.
Total RNA was prepared using the procedure of Chomczynski and Sacchi (Chomczynski, et al., 1987) and a commercially prepared reagent, TRISOLV™ (Biotecx Laboratories Inc., TX). Equal amounts of tRNA samples (10 μg) were size-fractionated on a 1% agarose-formaldehyde gel according to the methods described (Maniatis, et al., 1982) and transferred to a piece of QIAGEN plus nylon membrane. To determine loading and transfer efficiency, RNA was stained with ethidium bromide before and after transfer. The membrane was baked for 30 min. at 80° C. in vacuo (a vacuum) followed by UV cross-linking. It was then incubated for 4 hours at 65° C. in a prehybridization mixture containing 10% dextran sulfate, 1% SDS, 1M sodium chloride, 50 mM Tris-HCl (pH 7.5) and 100 μg/ml denatured salmon sperm DNA. Hybridization was carried out for 18 hours at 65° C. in the same buffer with a ^32P-labeled (1×10^6 cpm/ml) 40-mer oligonucleotide probe to the untranslated 5′ region of a human hsp70 gene (Oncogene Science). […] The membrane was then washed four times with 2×SSC, 0.1% SDS at room temperature, one time at 65° C. for 30 min., and one time at room temperature again for 5 min., and finally rinsed with 2×SSC at room temperature. This membrane was air dried and exposed to X-ray film at −80° C. for 48 hours. For measurement of the steady-state HSF1 protein levels, whole cell extracts were prepared by lysing the cells directly with 2×SDS-sample buffer (Maniatis, et al., 1982). For chemical cross-linking experiments, whole-cell extracts were prepared as described (Mosser, et al., 1988). Briefly, the cold PBS-washed cell pellets were quickly and repeatedly frozen in liquid nitrogen. […]

Data set [2] deals with hsp70, i.e. hsp72, mRNA. Nature of the data set: Northern blot of hsp70 (hsp72) mRNA in HepG2 cells. The note with it: ALLN 40 μg/ml plus actinomycin D 10 μg/ml or cycloheximide 50 μg/ml, 4 hours. The data set is classed as cell-based, human. As to the method: After 4 hours treatment at 37° C., cells were harvested. (B). […] The total RNA was prepared, and equal amounts of the samples were loaded and run on a 1% formaldehyde-agarose gel, blotted onto a nylon membrane, and subsequently hybridized with specific synthetic oligonucleotide probes for hsp70 mRNA as described under Experimental Details. The position of 28S and 18S rRNA are shown for reference.
Equal amounts of tRNA samples (10 μg) were size-fractionated on a 1% agarose-formaldehyde gel according to the methods described (Maniatis, et al., 1982) and transferred to a piece of QIAGEN plus nylon membrane. To determine loading and transfer efficiency, RNA was stained with ethidium bromide before and after transfer. The membrane was baked for 30 min. at 80° C. in vacuo (a vacuum) followed by UV cross-linking. It was then incubated for 4 hours at 65° C. in a prehybridization mixture containing 10% dextran sulfate, 1% SDS, 1M sodium chloride, 50 mM Tris-HCl (pH 7.5) and 100 μg/ml denatured salmon sperm DNA. […] The membrane was then washed four times with 2×SSC, 0.1% SDS at room temperature, one time at 65° C. for 30 min., and one time at room temperature again for 5 min., and finally rinsed with 2×SSC at room temperature.

Data set [3] concerns cysteine proteases, calpain and cathepsin B. The conditions noted are these: Rock, et al., 1994; cited from earlier work.
Data set [4] concerns Hsp70. Nature of the data set: Hsp70 induction in HepG2 cells ([3H]-leucine labeling, denaturing immunoprecipitation). The data set is classed as cell-based, human. The conditions noted are these: HepG2. The procedure:
HepG2 cells were grown up to 95% confluence and then preincubated for 4 hours in a 37° C. incubator with serum-free minimum essential medium (MEM), followed by radiolabeling with 3H-leucine (150 μCi/ml) dissolved in serum-free, leucine-free medium. Preincubation and labeling medium each contained 1.5% bovine serum albumin (BSA) plus different concentrations of ALLN as indicated. After labeling, cells were collected and lysed, and Hsp70 was immunoprecipitated under denaturing conditions as described under Experimental Details. Cell lysates containing an equal amount of TCA-insoluble radioactivity were used for immunoprecipitation. (A): The immunoprecipitates were analyzed by sodium dodecyl sulfate-polyacryamide gel electrophoresis (SDS-PAGE) and fluorography. Numbers on the left-hand side denote molecular markers. (B): The Hsp70 radioactivity was quantitated by scintillation counting and plotted. All the values were presented as means±SD from three individual culture dishes.
(§1) FIGS. 3A-3B: Effects of the other protease inhibitors on Hsp70 biosynthesis in HepG2 cells. HepG2 cells were preincubated in serum-free MEM containing either 1.5% BSA alone (Control), or BSA plus 40 μg/ml of ALLN, 40 μg/ml of ALLM, 50 μg/ml of leupeptin, 50 μg/ml of pepstatin A, 25 μg/ml of E-64d, 1 mM of phenylmethylsulfonyl fluoride (PMSF), 100 KIU/ml of apotinin, 1 mM of Benzamidine (Benz), 200 μM of calpain inhibitor peptide (CIP). Radiolabeling (in the presence of protease inhibitors), lysis and immunoprecipitation were performed as described in FIG. 1. The Hsp70 specific radioactivity (A) and the amount of total incorporated radioactivity (TCA-cpm) (B) were compared with each other. All the values were presented as the mean±SD from three individual culture dishes.
FIGS. 9A-9B: Effects of proteasome inhibitors on Hsp70 induction. HepG2 cells were preincubated with the proteasome inhibitors MG132 at a final concentration of either 10 μM or 30 μM (A), or lactacystin at 10 μM (B) for 4 hours under conditions described in FIG. 3. These cells were then subjected to radiolabeling (30 min), cell lysis, and immunoprecipitation with anti-Hsp70 antibody. The experiments with MG132 (A) were repeated twice; the effects of lactacystin (B) were studied in triplicate culture dishes.
ALLN, leupeptin, mouse anti-human Hsp72/73 monoclonal antibody, a secondary antibody conjugated with horseradish peroxidase (HRP) (goat anti-rabbit immunoglubin G [IgG]), and rabbit anti-rat IgG antibody were from Boehringer Mannheim Co. Anti-Human Hsp25 and anti-human Hsp60 monoclonal antibodies, ALLM, Calpain inhibitor peptide (CIP), dimethyl sulfoxide (DMSO) and dithiothreitol (DTT) were from Sigma. Human Hsp70 oligonucleotide probe was from Oncogene Science. This oligonucleotide was ^32P labeled at the 5′-end by T4 Kinase, which was from Biolabs. ^32P was from ICN Pharmaceutical Inc. L-[4,5-^3H] leucine was from Amersham Co. Anti-human Bip (immunoglobulin heavy chain binding protein, also called Grp78), anti-human Hsp27, anti-human Hsp60, and anti-human Hsp90 monoclonal antibodies were from Stress Genes. Anti-human Hsp86 and Hsp104 antibodies were from Affinity Bioreagent Inc. Nitrocellular transfer and immobilization membranes were from Schleicher & Schuell, Keene, N.H. RNA extraction kits were from Biotect, Tex. The polyclonal antibody against the human HSF1 protein was a generous gift from Dr. Carl Wu of the National Institute of Health (Rabindran, et al., 1993). Ethylene glycol bis(succunimidylsuccinate) (EGS) was from Pierce. Cbz-leucyl-leucyl-leucinal (MG132) was a gift of Dr. H. Ploegh at the Massachusetts Institute of Technology. All the other tissue culture supplies and chemicals were obtained from supplies as previously described (Dixon, et al., 1991). The HepG2 cell culture conditions were maintained as previously described (Dixon, et al., 1991).

For data set [5], the system named is proteasomes. The note with it: Rock, et al., 1994; cited from earlier work.
Data set [6] has as its system cysteine protease, serine protease, trypsin or chymotrypsin. The note with it: even upon extended exposure; Ward 1995, Fenteany 1995; cited from earlier work.
In data set [7] the test system is HepG2 cells. In words: Total incorporation of radiolabel (TCA cpm) as indicator of cell toxicity in HepG2 cells. The data set is classed as cell-based, human. The note with it: MG132 10 or 30 μM, lactacystin 10 μM, data not shown. The procedure:
as §1
Preincubation and labeling media each contained either 1.5% bovine serum albumin (BSA) alone, or BSA plus ALLN (40 μg/ml except as otherwise indicated), or BSA plus other protease inhibitors at concentrations indicated in the figure legends. At the indicated times, cells were removed from the 37° C. incubator and placed on ice, washed with cold phosphate-buffer saline (PBS) twice and lysed with lysis buffer containing 1% Triton X-100 (TX100), 1% deoxycholic acid (DOC) and 0.1% SDS in PBS containing proteinase inhibitors: 2 mM phenylmethylsulfonyl fluoride (PMSF); 2 μg/ml ALLN; 2 μg/ml leupeptin; and 2 μg/ml aprotinin. After a 30 min. incubation with lysis buffer at 4° C., the lysates were centrifuged at 14,000 g in a microcentrifuge for 5 min., and the supernatants were adjusted to 1% SDS concentration and boiled for 5 min. to denature the proteins. 1% TX100 was then added to dilute the lysates to a final concentration of 0.1% SDS. Cell lysates containing equal amounts of trichloroacetic acid (TCA)-insoluble radioactivity were used for immunoprecipitations by incubating with individual monoclonal antibody (1 μg/ml) for 2.5 hours at 4° C. Protein-A Sepharose 4B was added afterwards and the lysates incubated for another 1.5 hours at 4° C. to collect the immunocomplexes. […]

Entries after “also recorded” stand apart in the source; their conditions may differ. Peptide text beside a SMILES is read from it.

As to `C[C@@H]1C[C@@H]([C@H](O)CC2CC(=O)NC(=O)C2)C(=O)[C@@H](C)C1` [cycloheximide], the “effect on heat shock-associated HSF1 trimerization” value in data set [1] (42° C. plus cycloheximide 50 μg/ml) is given as “did not, however, affect”. The “effect of cotreatment on ALLN-induced HSF1 trimerization” value in data set [1] (ALLN 40 μg/ml plus cycloheximide 50 μg/ml, 37° C.) is listed as “abolished the effect of ALLN on HSF1 trimerization”. Moreover, the “effect of co-treatment on ALLN-induced increase in hsp72 mRNA” value in data set [2] is “abolished”.

As for `CSCC[C@@H](C=O)NC(=O)[C@H](CC(C)C)NC(=O)[C@H](CC(C)C)NC(C)=O` [ALLM, N-acetyl-leucyl-leucyl-methioninal] (Ac-Leu-Leu-Met-aldehyde), the “activities against calpain and cathepsin B” value in data set [3] is recorded as “significant activities”. In data set [4] (4 h pre-treatment, ALLN 40, ALLM 40, leupeptin 50, pepstatin A 50, E-64d 25 μg/ml, PMSF 1 mM, aprotinin 100 KIU/ml), the “induction of Hsp70 by protease inhibitors (FIG. 3A)” value is “significantly induce; also recorded: less ability to induce Hsp70 levels”. For the same compound, in data set [5], the inhibition of proteasomes result was “potent inhibitors”.

Regarding `CC(=O)N[C@@H](CSC(=O)[C@]1([C@@H](O)C(C)C)NC(=O)[C@H](C)[C@@H]1O)C(=O)O` [lactacystin], the “effect on cysteine protease, serine protease, trypsin or chymotrypsin” value in data set [6] is given as “no detectable effect”. In data set [4] (4 hours, MG132 10 μM or 30 μM, lactacystin 10 μM, 30 min labeling), the “induction of Hsp70 levels by proteasome inhibitors (FIG. 9)” value is given as “induced Hsp70 levels dramatically”. For the same compound, in data set [7], the “toxicity to the cells (TCA-precipitable radioactivities)” value is given as “without obvious toxicity”.

(Values after patent US20020111314A1, “Novel stimulation of gene expression and protein synthesis of heat shock protein 72/73 (Hsp 70)” (The Trustees of Columbia University, priority 1995, published 2002).)
